The record followed here is PubChem BioAssay (NCI).

Holding throughout (test): NCI-60 cell line screen, 48 h
The test system of experiment [1] is SF-295 CNS.
Experiment [2] deals with A549 NSCLC.
The test system of experiment [3] is 786-0 renal.
In experiment [4] the test system is MDA-N.
For experiment [5], the system named is HCT-116 colon.
Experiment [6] relates to NCI-H226 lung.
For experiment [7], the system named is HCT-15 colon.
Experiment [8] has as its system OVCAR-5 ovarian.
Experiment [9] deals with NCI-H23 lung.
Experiment [10] has as its system HOP-92 NSCLC.
In experiment [11] the test system is CCRF-CEM leukemia.

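Method: 48-hour compound exposure of cells in 96-well plates, five concentrations, linear interpolation of endpoints. Definition used: TGI = concentration required for complete inhibition of growth.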

Consider `Cc1ccccc1NC(=O)Cc1csc2[n+]1C(=O)/C(=C/c1ccc([N+](=O)[O-])cc1)S2`, for which the TGI in [1], in experiment [2], in [3], in experiment [4], in [5] and in experiment [6] was more than 100 µM each time. The TGI in [7] was more than 100 µM; in experiment [8] it was more than 100 µM; in experiment [9] it was 84.3 µM; in experiment [10] it was more than 100 µM.

On to `CCn1c(SCC(=O)NNC(=S)NC)nc2ccccc2c1=O`, for which the TGI in experiment [1], in experiment [2], in [3], in [4], in experiment [5] and in [6] was more than 100 µM each time. In addition, the TGI in [7], in experiment [11], in experiment [8] and in experiment [9] was more than 100 µM in each case.

`CC1C(c2ccc(Cl)cc2)c2cc3c(cc2OC1N1CCOCC1)OCO3` (configuration not stated): the TGI in experiment [1], in experiment [2], in [3], in experiment [4], in [5] and in experiment [7] was more than 100 µM throughout. Further, the TGI in experiment [11], in experiment [8] and in experiment [9] was more than 100 µM each time.

With `O=c1cnn(CCOCP(=O)(O)O)c(=O)[nH]1`, the TGI in [2], in [4], in experiment [6], in experiment [11], in experiment [8] and in experiment [9] was more than 100 µM in each case. For the same molecule, the TGI in experiment [10] is more than 100 µM.

On to `COc1cc(C2c3cc4c(cc3OC(NCCO)C2C)OCO4)cc(OC)c1OC` (configuration not stated), for which the TGI was more than 100 µM in experiment [2]; more than 100 µM in [3]; 0.5 µM in experiment [4]; more than 100 µM in [5]; 9.84 µM in [6]; more than 34.8 µM in [7]. The TGI in experiment [8] is more than 100 µM; in experiment [9], more than 100 µM; in [10], 93 µM.

On to `CCCC(CCN)(CCN)[N+](=O)[O-]`, for which the TGI in experiment [1], in experiment [2], in experiment [3], in experiment [4], in experiment [5] and in experiment [6] was more than 100 µM in each case. Moreover, the TGI in experiment [7], in experiment [11], in experiment [8] and in [9] was more than 100 µM each time.

For `COc1cc2nc(-c3cccs3)[nH]c(=O)c2cc1OC`, the TGI in experiment [1], in experiment [2], in experiment [3], in experiment [5], in experiment [6] and in experiment [7] was more than 100 µM in each case. For the same molecule, the TGI in experiment [11], in experiment [8], in experiment [9] and in experiment [10] was more than 100 µM each time.

`CSc1c(C(=O)Nc2ccc(Cl)cc2)c(N)n(N)c(=O)c1C#N`: the TGI in experiment [2], in [3], in experiment [4], in experiment [5], in [6] and in experiment [7] was more than 100 µM in each case. Besides, the TGI in experiment [11], in experiment [8] and in experiment [9] was more than 100 µM each time.

As to `Clc1ccc(OCc2nn3c(CCc4nnc5sc(COc6ccc(Cl)cc6)nn45)nnc3s2)cc1`, the TGI was more than 100 µM in experiment [1]; more than 100 µM in experiment [3]; more than 100 µM in [4]; 85.4 µM in [5]; more than 100 µM in experiment [6]; 95.8 µM in [7]. Also, the TGI in experiment [11] was more than 100 µM; in experiment [8] it was more than 100 µM; in experiment [9], 72.1 µM.

With `CNc1ncc(-c2nnnn2-c2ccccc2)c(CN(C)C)n1`, the TGI in experiment [1], in experiment [2], in [3], in experiment [5], in experiment [6] and in experiment [7] was more than 100 µM throughout. For the same molecule, the TGI in experiment [11], in experiment [8], in [9] and in [10] was more than 100 µM in each case.

As to `COc1cccc(/C=N/[N-]C(N)=O)c1[O-].[Cu+2].[OH3+].c1ccc(-c2ccccn2)nc1`, the TGI in experiment [1] is more than 100 µM; in experiment [2], more than 100 µM; in [3], 36.6 µM; in [5] it was more than 63 µM; in [6] it was 88.1 µM; in experiment [7], more than 100 µM. Further, the TGI in experiment [11] was more than 95.6 µM; in [8], more than 100 µM; in [9] it was 37.3 µM; in experiment [10] it was 29.8 µM.

For the molecule `CCOC(=O)C1=C(C)N(c2ccc(OC)cc2)C2(O)C=CC(=O)C3=C(O)c4ccccc4C(=O)C312` (configuration not stated), the TGI is 29.3 µM in experiment [1]; 36.2 µM in [2]; 34 µM in experiment [4]; 23.4 µM in [5]; 20.9 µM in experiment [7]; 15.9 µM in experiment [11]. For the same molecule, the TGI was 33.4 µM in [8], 37.4 µM in experiment [9] and 9.75 µM in experiment [10].

Take `O=C(OCC(Cl)(Cl)Cl)O[C@@H]1CCCC1(c1ccccc1)c1ccccc1`: the TGI in experiment [1], in [2], in experiment [3], in [4], in [5] and in experiment [6] was more than 100 µM each time. The TGI in experiment [7], in experiment [11], in [8] and in experiment [9] was more than 100 µM each time.

With `C[C@@H]1S[C@H](c2c(Cl)cccc2Cl)N2Cc3ccccc3N=C12`, the TGI in [1], in experiment [2], in experiment [3], in [4], in experiment [5] and in experiment [7] was more than 100 µM in each case. The TGI in experiment [11], in experiment [8], in experiment [9] and in experiment [10] was more than 100 µM in each case.
